What all share (assay type): functional
One assay relates to Pseudomonas aeruginosa. The experiment in a line: Antibacterial activity against Pseudomonas aeruginosa after 24 hr by twofold serial dilution method.
The subject of assay [1] is Candida. The experiment in a line: Antifungal activity against Candida-6 after 72 to 96 hr by two-fold serial dilution method.
In another assay the test system is Bacillus subtilis. As to the kind of experiment: Antibacterial activity against Bacillus subtilis after 24 hr by two-fold serial dilution method.
The subject of the next assay is Staphylococcus aureus. The experiment in a line: Antibacterial activity against Staphylococcus aureus after 24 hr by two-fold serial dilution method.
In another assay the test system is Aspergillus niger. As to the kind of experiment: Antifungal activity against Aspergillus niger after 72 to 96 hr by two-fold serial dilution method.
Assay [2] has as its system Candida. As to the kind of experiment: Antifungal activity against Candida-51 after 72 to 96 hr by two-fold serial dilution method.
The next assay relates to Aspergillus flavus. As to the kind of experiment: Antifungal activity against Aspergillus flavus after 72 to 96 hr by two-fold serial dilution method.
The next assay deals with Enterococcus faecalis. As to the kind of experiment: Antibacterial activity against Enterococcus faecalis after 24 hr by two-fold serial dilution method.

The values that follow come from ChEMBL document CHEMBL3045359, “Synthesis, stereochemistry, and antimicrobial evaluation of t(3)-isopropyl-r(2), c(6)-di-2-furanylpiperidin- 4-one and its derivatives” (2006).

The term MIC denotes the lowest concentration that inhibits growth of the organism. Higher therefore signals a need for much substance.

Converted amounts (≈) assume the structure as drawn.

On to `CC(C)C1C(=O)CC(c2ccco2)N(C=O)C1c1ccco1` (stereo unspecified), for which the MIC with Pseudomonas aeruginosa came out at 50 µg/mL (≈ 166 µM); against Candida [1] it was 25 µg/mL (≈ 83 µM); in the assay on Bacillus subtilis, 25 µg/mL (≈ 83 µM); in the assay with Staphylococcus aureus, 50 µg/mL (≈ 166 µM); with Aspergillus niger, 50 µg/mL (≈ 166 µM); against Candida [2] it was 50 µg/mL (≈ 166 µM). Besides, the MIC in the assay with Aspergillus flavus was determined as 50 µg/mL (≈ 166 µM); against Enterococcus faecalis, 25 µg/mL (≈ 83 µM).
As for `CC(C)C1/C(=N/O)CC(c2ccco2)NC1c1ccco1` (stereo unspecified), the MIC in the assay on Pseudomonas aeruginosa came out at 100 µg/mL (≈ 347 µM); against Candida [1], 50 µg/mL (≈ 173 µM); in the assay with Bacillus subtilis it was 50 µg/mL (≈ 173 µM); in the assay with Staphylococcus aureus, 50 µg/mL (≈ 173 µM); against Aspergillus niger, 100 µg/mL (≈ 347 µM); in the assay on Candida [2], 50 µg/mL (≈ 173 µM). Also, the MIC with Aspergillus flavus was determined as 25 µg/mL (≈ 86.7 µM); against Enterococcus faecalis, 50 µg/mL (≈ 173 µM).
As to `C[C@@H]1[C@H](O)[C@@H](C)/C=C/C=C/C=C/C=C/C=C/C=C/C=C/[C@H](O[C@@H]2O[C@H](C)[C@@H](O)[C@H](N)[C@@H]2O)C[C@@H]2O[C@](O)(C[C@@H](O)C[C@@H](O)[C@H](O)CC[C@@H](O)C[C@@H](O)CC(=O)O[C@H]1C)C[C@H](O)[C@H]2C(=O)O` [AMPHOTERICIN B], the MIC came out at 25 µg/mL (≈ 27.1 µM) against Candida [1], 50 µg/mL (≈ 54.1 µM) with Aspergillus niger, 25 µg/mL (≈ 27.1 µM) in the assay on Candida [2] and 50 µg/mL (≈ 54.1 µM) against Aspergillus flavus.
Turning to `CC(C)C1C(=O)CC(c2ccco2)N(C(=O)c2ccccc2)C1c1ccco1` (stereo unspecified), the MIC in the assay with Pseudomonas aeruginosa turned out to be 50 µg/mL (≈ 132 µM); against Candida [1] it was 12.5 µg/mL (≈ 33.1 µM); against Bacillus subtilis, 12.5 µg/mL (≈ 33.1 µM); in the assay on Staphylococcus aureus it was 25 µg/mL (≈ 66.2 µM); with Aspergillus niger it was 25 µg/mL (≈ 66.2 µM); in the assay on Candida [2], 12.5 µg/mL (≈ 33.1 µM). The MIC stood at 25 µg/mL (≈ 66.2 µM) with Aspergillus flavus and 50 µg/mL (≈ 132 µM) against Enterococcus faecalis.
As to `CC(=O)N1C(c2ccco2)CC(=O)C(C(C)C)C1c1ccco1` (stereo unspecified), the MIC was determined as 25 µg/mL (≈ 79.3 µM) against Pseudomonas aeruginosa; 50 µg/mL (≈ 159 µM) with Candida [1]; 12.5 µg/mL (≈ 39.6 µM) against Bacillus subtilis; 12.5 µg/mL (≈ 39.6 µM) with Staphylococcus aureus; 50 µg/mL (≈ 159 µM) in the assay on Aspergillus niger; 25 µg/mL (≈ 79.3 µM) against Candida [2]. The MIC in the assay on Aspergillus flavus and in the assay with Enterococcus faecalis was 50 µg/mL (≈ 159 µM) each time.
Take `CN[C@@H]1[C@H](O[C@H]2[C@H](O[C@H]3[C@H](O)[C@@H](O)[C@H](N=C(N)N)[C@@H](O)[C@@H]3N=C(N)N)O[C@@H](C)[C@]2(O)C=O)O[C@@H](CO)[C@H](O)[C@H]1O` [STREPTOMYCIN]: the minimal inhibitory concentration (MIC) amounted to 25 µg/mL (≈ 43 µM) against Pseudomonas aeruginosa, 12.5 µg/mL (≈ 21.5 µM) against Bacillus subtilis, 25 µg/mL (≈ 43 µM) against Staphylococcus aureus and 50 µg/mL (≈ 86 µM) in the assay with Enterococcus faecalis.
On to `CCC(=O)N1C(c2ccco2)CC(=O)C(C(C)C)C1c1ccco1` (stereo unspecified), for which the MIC against Pseudomonas aeruginosa is 25 µg/mL (≈ 75.9 µM); against Candida [1] it was 12.5 µg/mL (≈ 37.9 µM); in the assay with Bacillus subtilis it was 12.5 µg/mL (≈ 37.9 µM); against Staphylococcus aureus, 25 µg/mL (≈ 75.9 µM); against Aspergillus niger, 50 µg/mL (≈ 152 µM); against Candida [2], 50 µg/mL (≈ 152 µM). Further, the MIC in the assay on Aspergillus flavus was 25 µg/mL (≈ 75.9 µM); in the assay on Enterococcus faecalis, 50 µg/mL (≈ 152 µM).
With `CC(C)C1C(=O)CC(c2ccco2)NC1c1ccco1` (stereo unspecified), the MIC was 50 µg/mL (≈ 183 µM) in the assay on Pseudomonas aeruginosa; 50 µg/mL (≈ 183 µM) in the assay with Candida [1]; 100 µg/mL (≈ 366 µM) against Bacillus subtilis; above 100 µg/mL with Staphylococcus aureus; above 100 µg/mL with Aspergillus niger; 25 µg/mL (≈ 91.5 µM) in the assay with Candida [2]. Besides, the MIC with Aspergillus flavus and against Enterococcus faecalis was above 100 µg/mL throughout.
